Measurements as given in patent US20030224942A1, “Alkylamino-1,3,5-triazines, processes for their preparation and their use as herbicides and plant growth regulators” (priority 2001, published 2003).

Assays:
[1] = tested on: Cyperus spp., Echinochloa spp., Digitaria spp., Sagitaria spp. and Scirpus spp.; test: Action on harmful plants in rice (paddy rice conditions, visual scoring); format: in vivo, typical rice weeds (gramineous and broad-leaved); details: applied into the dammed water, visual scoring about three weeks after application
From the text: Transplanted and sown rice and also typical rice weeds (gramineous and broad-leaved) are cultivated in closed plastic pots in a greenhouse to the three-leaf stage (Echinochloa crus-galli 1.5-leaf) under paddy rice conditions (dammed height of water: 2-3 cm). This is followed by treatment with the compounds according to the invention. […] After this treatment, the test plants are set up in a greenhouse under optimum growth conditions and are maintained in this way throughout the test period.

[2] = tested on: Chenopodium spp., Papaver spp., Polygonum spp., Veronica spp. or Viola spp.; test: Post-emergence effect on weeds (greenhouse pot test, visual scoring); format: in vivo, monocotyledonous and dicotyledonous weeds; details: treated at three-leaf stage; visual scoring after about 3 to 4 weeks; application rate of 0.5 kg and less of active substance per hectare

| SMILES | herbicidal activity against harmful plants which are typical for rice crops [1] | herbicidal activity post-emergence against harmful plants [2] |
| --- | --- | --- |
| CC#Cc1cccc(C(Nc2nc(N)nc(C(C)(C)F)n2)C2CC2)c1 (stereo not shown) [Product P19.1582] | very good herbicidal activity | very good herbicidal activity |
| Cc1nc(N)nc(NCc2cc(F)c(C(F)=C(F)F)c(F)c2)n1 [Product P1.49] | very good herbicidal activity | very good herbicidal activity |
| C#Cc1ccc(C(C)Nc2nc(N)nc(CC)n2)cc1 (stereo not shown) [Product P7.1580] | very good herbicidal activity | very good herbicidal activity |
| CCCCC#Cc1ccc(C(C)Nc2nc(N)nc(C(C)F)n2)cc1 (stereo not shown) [Product P22.1595] | very good herbicidal activity | very good herbicidal activity |
| CCc1nc(N)nc(NCc2cc(F)c(C3CC3)c(F)c2)n1 [Product P6.960] | very good herbicidal activity | very good herbicidal activity |
| C#Cc1cccc(CNc2nc(N)nc(CC)n2)c1 [Product P6.1579] | very good herbicidal activity | very good herbicidal activity |
| CC(F)C#Cc1cccc(C(C)Nc2nc(N)nc(C(C)(C)F)n2)c1 (stereo not shown) [Product P17.1597] | very good herbicidal activity | very good herbicidal activity |
| CC#Cc1ccc(C(C)Nc2nc(C)nc(N)n2)cc1 (stereo not shown) [Product P2.1583] | very good herbicidal activity | very good herbicidal activity |
| CC(F)c1nc(N)nc(NCc2ccc(F)c(C(F)=C(F)F)c2)n1 (stereo not shown) [Product P21.5] | very good herbicidal activity | very good herbicidal activity |
| CCC(F)c1nc(N)nc(NCc2ccc(F)c(C(F)=C(F)F)c2)n1 (stereo not shown) [Product P26.5] | very good herbicidal activity | very good herbicidal activity |
| CC(F)C#Cc1cc(C(C)Nc2nc(N)nc(C(C)(C)F)n2)ccc1F (stereo not shown) [Product P17.764] | very good herbicidal activity | very good herbicidal activity |
| C#Cc1cccc(C(C)Nc2nc(N)nc(C(F)CC)n2)c1 (stereo not shown) [Product P27.1579] | very good herbicidal activity | very good herbicidal activity |
| C#Cc1c(F)cc(C(Nc2nc(N)nc(C(F)CC)n2)C2CC2)cc1F (stereo not shown) [Product P29.352] | very good herbicidal activity | very good herbicidal activity |
| CC#Cc1cc(C(Nc2nc(N)nc(CC)n2)C2CC2)ccc1F (stereo not shown) [Product P9.384] | very good herbicidal activity | very good herbicidal activity |
| CCc1nc(N)nc(NCc2cccc(C(F)=C(F)F)c2)n1 [Product P6.1567] | very good herbicidal activity | very good herbicidal activity |
| CC(O)C#Cc1cc(C(C)Nc2nc(N)nc(C(C)F)n2)ccc1F (stereo not shown) [Product P22.840] | very good herbicidal activity | very good herbicidal activity |
| C#Cc1c(F)cc(C(Nc2nc(N)nc(C(C)(C)F)n2)C2CC2)cc1F (stereo not shown) [Product P19.352] | very good herbicidal activity | very good herbicidal activity |
| CC#Cc1cc(CNc2nc(N)nc(C(C)F)n2)ccc1F (stereo not shown) [Product P21.384] | very good herbicidal activity | very good herbicidal activity |
| C=C=Cc1c(F)cc(C(C)Nc2nc(N)nc(C(C)(C)F)n2)cc1F (stereo not shown) [Product P17.656] | very good herbicidal activity | very good herbicidal activity |
| CC(F)C#Cc1ccc(C(C)Nc2nc(N)nc(C(C)F)n2)cc1 (stereo not shown) [Product P22.1598] | very good herbicidal activity | very good herbicidal activity |
| CC#Cc1ccc(C(C)Nc2nc(N)nc(CC)n2)cc1 (stereo not shown) [Product P7.1583] | very good herbicidal activity | very good herbicidal activity |

| SMILES | herbicidal activity against harmful plants which are typical for rice crops [1] | herbicidal activity post-emergence against harmful plants [2] |
| --- | --- | --- |
| CC#Cc1c(F)cc(C(Nc2nc(C)nc(N)n2)C2CC2)cc1F (stereo not shown) [Product P4.428] | very good herbicidal activity | very good herbicidal activity |
| CC(O)C#Cc1cccc(C(C)Nc2nc(N)nc(C(C)F)n2)c1 (stereo not shown) [Product P22.1600] | very good herbicidal activity | very good herbicidal activity |
| C#Cc1cccc(CNc2nc(N)nc(C(C)F)n2)c1 (stereo not shown) [Product P21.1579] | very good herbicidal activity | very good herbicidal activity |
| CC(C)c1nc(N)nc(NCc2ccc(C3CC3)cc2)n1 [Product P11.1604] | very good herbicidal activity | very good herbicidal activity |
| CCc1nc(N)nc(NC(C)c2cc(F)c(C3CC3)c(F)c2)n1 (stereo not shown) [Product P7.960] | very good herbicidal activity | very good herbicidal activity |
| CC(F)C#Cc1cc(C(C)Nc2nc(N)nc(C(C)F)n2)ccc1F (stereo not shown) [Product P22.764] | very good herbicidal activity | very good herbicidal activity |
| CCC(F)c1nc(N)nc(NCc2cc(F)c(C(F)=C(F)F)c(F)c2)n1 (stereo not shown) [Product P26.49] | very good herbicidal activity | very good herbicidal activity |
| Cc1nc(N)nc(NCc2cccc(C(F)=C(F)F)c2)n1 [Product P1.1567] | very good herbicidal activity | very good herbicidal activity |
| CC#Cc1cc(C(C)Nc2nc(N)nc(CC)n2)ccc1F (stereo not shown) [Product P7.384] | very good herbicidal activity | very good herbicidal activity |
| CCC(F)c1nc(N)nc(NC(C)c2cccc(C#CC(C)O)c2)n1 (stereo not shown) [Product P27.1600] | very good herbicidal activity | very good herbicidal activity |
| CC#Cc1ccc(C(Nc2nc(N)nc(C(C)(C)F)n2)C2CC2)cc1 (stereo not shown) [Product P19.1583] | very good herbicidal activity | very good herbicidal activity |
| C=C=Cc1c(F)cc(C(C)Nc2nc(N)nc(CC)n2)cc1F (stereo not shown) [Product P7.656] | very good herbicidal activity | very good herbicidal activity |
| C#Cc1cccc(C(C)Nc2nc(N)nc(C(C)C)n2)c1 (stereo not shown) [Product P12.1579] | very good herbicidal activity | very good herbicidal activity |
| CC(Nc1nc(N)nc(C(C)(C)F)n1)c1ccc(F)c(C(F)=C(F)F)c1 (stereo not shown) [Product P17.5] | very good herbicidal activity | very good herbicidal activity |
| CC(C)c1nc(N)nc(NC(C)c2cc(F)c(C(F)=C(F)F)c(F)c2)n1 (stereo not shown) [Product P12.49] | very good herbicidal activity | very good herbicidal activity |
| C#Cc1ccc(CNc2nc(N)nc(CC)n2)cc1 [Product P6.1580] | very good herbicidal activity | very good herbicidal activity |
| CC(O)C#Cc1ccc(C(C)Nc2nc(N)nc(C(C)(C)F)n2)cc1 (stereo not shown) [Product P17.1601] | very good herbicidal activity | very good herbicidal activity |
| CC#Cc1cc(C(Nc2nc(N)nc(C(C)C)n2)C2CC2)ccc1F (stereo not shown) [Product P14.384] | very good herbicidal activity | very good herbicidal activity |
| C#Cc1ccc(C(Nc2nc(N)nc(CC)n2)C2CC2)cc1 (stereo not shown) [Product P9.1580] | very good herbicidal activity | very good herbicidal activity |
| CC(C)c1nc(N)nc(NCc2cccc(C(F)=C(F)F)c2)n1 [Product P11.1567] | very good herbicidal activity | very good herbicidal activity |
